In US10844049B2, “GLP-1R agonists and uses thereof” (QILU REGOR THERAPEUTICS INC., priority 2018, dated 2020):
pEC50: −log10 of the molar value.

Target: GLP1R (Homo sapiens, UniProt P43220)
Assay: GLP1R cAMP HTRF assay, HEK293/GLP-1R/CRE/Luc (HEK293T cells)
Type: cell-based
Settings: read-out: EC50
Experimental: GLP-1R-mediated agonist activity was determined with a cell-based functional assay utilizing an HTRF (Homogeneous Time-Resolved Fluorescence) cAMP detection kit (cAMP Dynamic 2 Assay Kit; CisBio cat #62AM4PEC) that measures cAMP levels in the cell. The method is a competitive immunoassay between native cAMP produced by the cells and exogenous cAMP labeled with the dye d2. The tracer binding is visualized by a mAb anti-cAMP labeled with Cryptate. The specific signal (i.e., energy transfer) is inversely proportional to the concentration of cAMP in either standard or experimental sample.
A cell line stably expressing the receptor was isolated.
Varying concentrations of each compound to be tested (in DMSO) were diluted in DMSO to obtain 200× compound working solution first and then 50 nl compounds were added to a white 384-well assay plate (Greiner 784075) with ECHO. The final DMSO concentration was 0.5%. The compound concentration range may be adjusted at any time.
Cells were removed from cryopreservation, re-suspended in 5 mL of Dulbecco's Phosphate Buffered Saline (DPBS-Sigma Cat # D8537) and centrifuged at 900 g for 5 min at 22° C. The cell pellet was then re-suspended in 1 mL of assay buffer [DPBS with 500 μM IBMX (Sigma #15879) and 0.1% BSA (Sigma # A1933). IBMX and BSA were freshly added on the day of assay]. A 10 μL sample of the cell suspension was counted on an Invitrogen Countess II to determine cell viability and cell count per mL. The remaining cell suspension was then adjusted with assay buffer to deliver 1000 viable cells per well using a Matrix Combi Multidrop reagent dispenser. 10 μL cell suspensions were added to each well of the assay plate which already contains compound. The plate was sealed and incubated at 37° C. with 5% CO2 for 30 minutes.
Following the 30 minute incubation, 5 μL of labeled d2 cAMP and 5 μL of anti-cAMP antibody (both diluted 1:20 in cell lysis buffer; as described in the manufacturer's assay protocol) were added to each well of the assay plate. The plates w ere then incubated at room temperature and after 60 minutes, changes in the HTRF signal were read with an Envision multi-label plate reader using excitation of 330 nm and emissions of 615 and 665 nm. Raw data were converted to nM cAMP by interpolation from a cAMP standard curve (as described in the manufacturer's assay protocol) and the percent effect was determined relative to a saturating concentration of the full agonist GLP-17-37 (10 nM) included on each plate. EC50 determinations were made from agonist dose-response curves analyzed with a curve fitting program using a 4-parameter logistic dose response equation.
3) Anti-cAMP antibody-cryptate working solution preparation • c) The lyophilisate was reconstituted with appropriate amount of distilled water according to manufacturer's instruction to make working stock which can be aliquoted and frozen (−20° C.). • d) The working stock solution was diluted 1:20 in the conjugate and lysis buffer before use. Procedures Procedures for Cell Suspension Preparation • 1. Frozen cells were thawed very briefly in a 37° C. water bath under sterile conditions until just before ice completely melt (for about 1 minute) with a continuous agitation. Caution was taken because a longer incubation could result in cell death. • 2. DMSO was removed from the media by carefully transferring thawed cells to a sterile 15/50 mL tube, filling a tube with 10-50 mL of complete media pre-warmed to 37° C., and allowing the cells to sit 5 min before centrifuging at 900 rpm for 5 minutes for cell collection. • 3. The cells were resuspended with assay buffer. • 4. For stable GLP1-R assay, the optimized cell density is 1000 cells/well. Caution was taken because cell density optimization was crucial and needed to be optimized in different laboratories. The level of cAMP produced by the cells must fall within the linear range of the standard curve.

Sequence of GLP1R (P43220 24-463): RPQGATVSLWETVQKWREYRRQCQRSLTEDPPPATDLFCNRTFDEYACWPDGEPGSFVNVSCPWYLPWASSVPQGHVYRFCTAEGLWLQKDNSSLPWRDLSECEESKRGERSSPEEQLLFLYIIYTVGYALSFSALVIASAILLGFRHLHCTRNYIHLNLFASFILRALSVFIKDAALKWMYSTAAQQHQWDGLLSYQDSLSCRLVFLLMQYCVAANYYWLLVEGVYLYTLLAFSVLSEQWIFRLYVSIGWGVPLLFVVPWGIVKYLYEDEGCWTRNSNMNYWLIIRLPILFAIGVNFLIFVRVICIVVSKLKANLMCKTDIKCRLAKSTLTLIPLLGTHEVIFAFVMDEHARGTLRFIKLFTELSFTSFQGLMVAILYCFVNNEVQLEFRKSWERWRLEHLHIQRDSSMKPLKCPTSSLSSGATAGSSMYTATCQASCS

Row | Structure (SMILES) | pEC50
1 | O=C(O)c1ccc2nc(CN3CC=C(c4cncc(OCc5ccc(Cl)cc5F)c4)CC3)n(C[C@@H]3CCO3)c2c1 [Compound 32, (S)-2-((5-((4-chloro-2-fluorobenzyl)oxy)-3′,6′-dihydro-[3H′-bipyridin]-1′(2′H)-yl)methyl)-1-(oxetan-2-ylmethyl)-1 h-benzo[d]imidazole-6-carboxylic acid] | ≥ 6.00
2 | O=C(O)c1ccc2nc(CN3CC=C(c4ccc(F)c(OCc5ccc(C#CC6CC6)cc5F)c4)CC3)n(C[C@@H]3CCO3)c2c1 [Compound 202, (S)-2-((4-(3-((4-(cyclopropylethynyl)-2-fluorobenzyl)oxy)-4-fluorophenyl)-3,6-dihydropyridin-1(2H)-yl)methyl)-1-(oxetan-2-ylmethyl)-1H-benzo[d]imidazole-6-carboxylic acid] | ≥ 6.82
3 | O=C(O)c1ccc2nc(CN3CC=C(c4cc(OCc5ccc(Cl)cc5F)ccc4F)CC3)n(C[C@@H]3CCO3)c2c1 [Compound 43, (S)-2-((4-(5-((4-chloro-2-fluorobenzyl)oxy)-2-fluorophenyl)-3,6-dihydropyridin-1(2H)-yl)methyl)-1-(oxetan-2-ylmethyl)-1H-benzo[d]imidazole-6-carboxylic add] | ≥ 7.82
4 | N#Cc1ccc(COc2cccc(C3CCN(Cc4nc5ccc(C(=O)O)cc5n4C[C@@H]4CCO4)CC3)c2)c(F)c1 [Compound 191, (S)-2-((4-(3-((4-cyano-2-fluorobenzyl)oxy)phenyl)piperidin-1-yl)methyl)-1-(oxetan-2-ylmethyl)-1H-benzo[d]imidazole-6-carboxylic acid] | ≥ 6.82
5 | O=C(O)c1ccc2nc(CN3CCC(=O)N(c4cccc(OCc5ccc(Cl)cc5F)n4)CC3)n(C[C@@H]3CCO3)c2c1 [Compound 57] | ≥ 6.00
6 | CC(c1ncco1)n1c(CN2CC=C(c3cccc(OCc4ccc(Cl)cc4F)n3)CC2)nc2ccc(C(=O)O)cc21 (stereo not drawn) [Compound 112, 2-((6-((4-chloro-2-fluorobenzyl)oxy)-3′,6′-dihydro-[2,4′-bipyridin]-1′(2′H)-yl)methyl)-1-(1-(oxazol-2-yl)ethyl)-1H-benzo[d]imidazole-6-carboxylic acid] | ≥ 6.00
7 | O=C(O)c1ccc2nc(CN3CC=C(c4cc(OCc5ccc(Cl)cc5F)ccn4)CC3)n(C[C@@H]3CCO3)c2c1 [Compound 30, (S)-2-((4-((4-chloro-2-fluorobenzyl)oxy)-3′,6′-dihydro-[2,4′-bipyridin]-1′(2′H)-yl)methyl)-1-(oxetan-2-ylmethyl)-1 h-benzo[d]imidazole-6-carboxylic add] | ≥ 6.82
8 | Cn1c(CN2CCN(c3cccc(OCc4ccc(Cl)cc4F)n3)CC2)cc2ccc(C(=O)O)cc21 [Compound 50, 2-((4-(6-(4-chloro-2-fluorobenzyloxy)pyridin-2-yl)piperazin-1-yl)methyl)-1-methyl-1 h-indole-6-carboxylic add] | < 6.00
9 | O=C(O)c1ccc2nc(CN3CC=C(c4cccc(OCc5ccc(Cl)cc5F)n4)CC3)n(C[C@@H]3CCO3)c2n1 [Compound 169, (S)-2-((6-((4-chloro-2-fluorobenzyl)oxy)-3′,6′-dihydro-[2,4′-bipyridin]-1′(2′H)-yl)methyl)-3-(oxetan-2-ylmethyl)-3H-imidazo[4,5-b]pyridine-5-carboxylic acid] | ≥ 7.82
10 | CC1(C)CN(Cc2nc3ccc(C(=O)O)cc3n2C[C@@H]2CCO2)CC=C1c1cccc(OCc2ccc(C#N)cc2F)n1 [Compound 235, (S)-2-((6-((4-cyano-2-fluorobenzyl)oxy)-3′,3′-dimethyl-3′,6′-dihydro-[2H′-bipyridin]-1′(2′H)yl)methyl)-1-(oxetan-2-ylmethyl)-1H-benzo[d]imidazole-6-carboxylic add] | ≥ 6.00
11 | O=C(O)c1ccc2nc(CN3CC=C(c4cccc(OCc5ccc(OC(F)(F)F)cc5)n4)CC3)n(C[C@@H]3CCO3)c2c1 [Compound 120, (S)-1-(oxetan-2-ylmethyl)-2-((6-((4-(trifluoromethoxy)benzyl)oxy)-3′,6′-dihydro-[2,4′-bipyridin]-1′(2′H)-yl)methyl)-1H-benzo[d]imidazole-6-carboxylic acid] | ≥ 7.82
12 | O=C(O)c1ccc2nc(CN3CC=C(c4cccc(OCc5ccc6c(c5)OCO6)n4)CC3)n(C[C@@H]3CCO3)c2c1 [Compound 152] | ≥ 7.82
13 | O=C(O)c1ccc2nc(CN3CC=C(c4cc5cn[nH]c5c(OCc5ccc(Cl)cc5F)n4)CC3)n(C[C@@H]3CCO3)c2c1 [Compound 103, (S)-2-((4-(7-((4-chloro-2-fluorobenzyl)oxy)-1H-pyrazolo[3H-c]pyridin-5-yl)-3,6-dihydropyridin-1(2H)-yl)methyl)-1-(oxetan-2-ylmethyl)-1H-benzo[d]imidazole-6-carboxylic add] | ≥ 6.82
14 | O=C(O)c1ccc2nc(CN3CC=C(c4cc(OCc5ccc(Cl)cc5F)ncc4F)CC3)n(C[C@@H]3CCO3)c2c1 [Compound 128, (S)-2-((2′-((4-chloro-2-fluorobenzyl)oxy)-5′-fluoro-3,6-dihydro-[4,4′-bipyridin]-1(2H)-yl)methyl)-1-(oxetan-2-ylmethyl)-1H-benzo[d]imidazole-6-carboxylic acid] | ≥ 6.82
15 | O=C(O)c1ccc2nc(CN3CC=C(c4ccc5ccn(Cc6ccc(Cl)cc6F)c5n4)CC3)n(C[C@@H]3CCO3)c2c1 [Compound 25, (S)-2-((4-(1-(4-chloro-2-fluorobenzyl)-1 h-pyrrolo[2,3-b]pyridin-6-yl)-5,6-dihydropyridin-1(2H)-yl)methyl)-1-(oxetan-2-ylmethyl)-1 h-benzo[d]imidazole-6-carboxylic acid] | ≥ 6.82
16 | O=C(O)c1ccc2nc(CN3CC=C(c4cc(NCc5ccc(Cl)cc5F)ccc4F)CC3)n(C[C@@H]3CCO3)c2c1 [Compound 127, (S)-2-((4-(5-((4-chloro-2-fluorobenzyl)amino)-2-fluorophenyl)-3,6-dihydropyridin-1(2H)-yl)methyl)-1-(oxetan-2-ylmethyl)-1H-benzo[d]imidazole-6-carboxylic acid] | ≥ 6.82
17 | O=C(O)c1ccc2nc(CN3CC=C(c4cc5nc[nH]c5c(OCc5ccc(Cl)cc5F)n4)CC3)n(C[C@@H]3CCO3)c2c1 [Compound 58, (S)-2-((4-(4-((4-chloro-2-fluorobenzyl)oxy)-3H-imidazo[4,5-c]pyridin-6-yl)-3,6-dihydropyridin-1(2H)-yl)methyl)-1-(oxetan-2-ylmethyl)-1H-benzo[d]imidazole-6-carboxylic acid] | < 6.00
18 | O=C(O)c1ccc2nc(CN3CCN(c4cccc(OCc5ccc(Cl)cc5F)n4)CC3=O)n(C[C@@H]3CCO3)c2c1 [Compound 106, (S)-2-((4-(6-((4-chloro-2-fluorobenzyl)oxy)pyridin-2-yl)-2-oxopiperazin-1-yl)methyl)-1-(oxetan-2-ylmethyl)-1H-benzo[d]imidazole-6-carboxylic add] | ≥ 7.82
19 | O=C(O)c1ccc2nc(CN3CC=C(c4cccc(OCc5cccc(Cl)c5)n4)CC3)n(C[C@@H]3CCO3)c2c1 [Compound 137, (S)-2-((6-((3-chlorobenzyl)oxy)-3′,6′-dihydro-[2,4′-bipyridin]-1′(2′H)-yl)methyl)-1-(oxetan-2-ylmethyl)-1H-benzo[d]imidazole-6-carboxylic add] | ≥ 6.00
20 | Cc1ncccc1COc1cccc(C2=CCN(Cc3nc4ccc(C(=O)O)cc4n3C[C@@H]3CCO3)CC2)n1 [Compound 161, (S)-2-((6-((2-methylpyridin-3-yl)methoxy)-3′,6′-dihydro-[2,4′-bipyridin]-1′(2′ H)-yl)methyl)-1-(oxetan-2-ylmethyl)-1H-benzo[d]imidazole-6-carboxylic acid] | ≥ 6.82
21 | O=C(O)c1ccc2nc(CN3CC=C(c4cccc(OCc5ccccc5F)n4)CC3)n(C[C@@H]3CCO3)c2c1 [Compound 155, (S)-2-((6-((2-fluorobenzyl)oxy)-3′,6′-dihydro-[2H′-bipyridin]-1′(2′H)-yl)methyl)-1-(oxetan-2-ylmethyl)-1H-benzo[d]imidazole-6-carboxylic acid] | ≥ 7.82
